# From patent US9266870B2 (TAISHO PHARMACEUTICAL CO., LTD., priority 2012, dated 2016)
# Like-named read-outs stand apart in the source and are kept apart here.
# Columns and labels:
# [1] = biological target: human orexin-2 receptor (hOX2R) (Homo sapiens (Human), UniProt O43614); experiment: Measurement of orexin antagonistic activity (intracellular Ca2+ fluorescence, FDSS), hOX2R; type: cell-based
# Experimental: (§1) The antagonistic activities of the test compounds on human orexin-1 receptor (hOX1R) and orexin-2 receptor (hOX2R) were measured by modifying from the method described in literature (Toshikatsu Okumura et al., Biochemical and Biophysical Research Communications 280, 976-981, 2001). Chinese hamster ovary (CHO) cells forcibly expressing the hOX1R and hOX2R were seeded into a 96 well Black clear bottom plate (Nunc) at 20,000 cells per well, which were cultured in Ham's F-12 medium containing 0.1 mM MEM non-essential amino acids, 0.5 mg/ml G418, 10% fetal bovine serum (all by Invitrogen) for 16 hours under the conditions of 37° C., 5% CO2. After removing the medium, 100 μL of 0.5 μM Fluo-4AM ester (Dojin) in an assay buffer (25 mM HEPES (Dojin), Hank's balanced salt solution (Invitrogen), 0.1% bovine serum albumin, 2.5 mM probenecid, 200 μg/ml Amaranth (all by Sigma-Aldrich), pH 7.4) was added and the cells were incubated for 60 minutes at 37° C., 5% CO2. After removing the assay buffer containing […] ester, the test compound was dissolved in dimethyl sulfoxide to be 10 mM and diluted with the assay buffer, 150 μL of which was added and incubated for 30 minutes.
# (§2) The reaction was measured for the fluorescence intensity of each well every second for 3 minutes using Functional Drug Screening System (FDSS; Hamamatsu Photonics K.K.), and the antagonistic activity was determined using the maximum fluorescence intensity as the indicator of intracellular Ca2+ concentration.
# [2] = biological target: human orexin-1 receptor (hOX1R) (Homo sapiens (Human), UniProt O43613); experiment: Measurement of orexin antagonistic activity (intracellular Ca2+ fluorescence, FDSS), hOX1R; type: cell-based; details: ligand peptide (modified human orexin-A) 300 pM, maximum fluorescence intensity
# Chain of human orexin-1 receptor (hOX1R) (O43613 whole entry): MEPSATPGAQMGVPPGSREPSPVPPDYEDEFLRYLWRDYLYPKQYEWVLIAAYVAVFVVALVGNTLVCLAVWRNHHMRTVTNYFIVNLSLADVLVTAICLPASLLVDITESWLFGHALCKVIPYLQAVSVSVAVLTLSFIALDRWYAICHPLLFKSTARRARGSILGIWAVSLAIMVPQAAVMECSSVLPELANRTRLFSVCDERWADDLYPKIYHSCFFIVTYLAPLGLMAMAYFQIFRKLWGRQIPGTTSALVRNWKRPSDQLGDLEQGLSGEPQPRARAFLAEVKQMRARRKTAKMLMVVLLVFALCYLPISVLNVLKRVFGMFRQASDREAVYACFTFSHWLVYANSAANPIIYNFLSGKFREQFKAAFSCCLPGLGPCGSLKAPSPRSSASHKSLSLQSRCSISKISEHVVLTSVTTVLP
# Experimental: as §1, with “Chinese” for “The antagonistic activities of the test compounds on human orexin-1 receptor (hOX1R) and orexin-2 receptor (hOX2R) were measured by modifying from the method described in literature (Toshikatsu Okumura et al., Biochemical and Biophysical Research Communications 280, 976-981, 2001). Chinese”
# as §2
# [3] = CHO cells forcibly expressing hOX2R, ligand peptide (modified human orexin-A) 3 nM, maximum fluorescence intensity, read-out: IC50 Value OX2
# [4] = CHO cells forcibly expressing hOX1R, read-out: IC50 Value OX1
# Chain of human orexin-2 receptor (hOX2R) (O43614 whole entry): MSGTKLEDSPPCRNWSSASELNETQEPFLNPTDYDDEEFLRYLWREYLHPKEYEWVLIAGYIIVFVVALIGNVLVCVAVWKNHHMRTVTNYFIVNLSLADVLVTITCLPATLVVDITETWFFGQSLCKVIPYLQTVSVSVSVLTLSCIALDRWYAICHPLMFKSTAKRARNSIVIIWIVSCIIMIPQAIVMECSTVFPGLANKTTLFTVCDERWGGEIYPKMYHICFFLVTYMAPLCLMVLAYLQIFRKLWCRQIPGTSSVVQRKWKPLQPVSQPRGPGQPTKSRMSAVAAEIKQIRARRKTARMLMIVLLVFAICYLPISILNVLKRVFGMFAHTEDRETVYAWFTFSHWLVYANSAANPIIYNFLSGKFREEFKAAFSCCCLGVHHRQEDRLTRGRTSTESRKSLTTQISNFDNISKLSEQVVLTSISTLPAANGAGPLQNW
"IC50 [1, 3] [nM]","IC50 [2, 4] [nM]",SMILES,IC50 [1] [nM],"IC50 ([2]; IC50 Value OX1, CHO cells forcibly expressing hOX1R) [nM]"
18.6,14.3,"Cc1ccc(-n2nccn2)c(C(=O)N2CCOC2Cn2cc(-c3ccc(F)cn3)cn2)c1 (single isomer, unassigned; (-)) [Example 2, (−)-(2-[[4-(5-fluoropyridin-2-yl)-1H-pyrazol-1-yl]-methyl]-1,3-oxazolidin-3-yl)[5-methyl-2-(2H-1,2,3-triazol-2-yl)phenyl] methanone]",,
59.1,21.7,"Cc1ccc(-n2nccn2)c(C(=O)N2CCOC2Cn2ccc(-c3ccc(F)cc3)n2)n1 (single isomer, unassigned; (-)) [Example 26, (−)-(2-[[3-(4-fluorophenyl)-1H-pyrazol-1-yl]methyl]-1,3-oxazolidin-3-yl) [6-methyl-3-(2H-1,2,3-triazol-2-yl)pyridin-2-yl] methanone]",,
3,0.9,"Cc1ccc(-n2nccn2)c(C(=O)N2CCCOC2Cn2ccc(-c3ccc(F)cc3)n2)n1 (single isomer, unassigned; (-)) [Example 27, (−)-(2-[[3-(4-fluorophenyl)-1H-pyrazol-1-yl]methyl]-1,3-oxazinan-3-yl)[6-methyl-3-(2H-1,2,3-triazol-2-yl)pyridin-2-yl]methanone]",,
4,2.4,"Cc1ccc(-c2ncccn2)c(C(=O)N2CCCOC2Cn2ccc(-c3ccc(F)cc3)n2)n1 (single isomer, unassigned; (-)) [Example 28, (−)-(2-[[3-(4-fluorophenyl)-1H-pyrazol-1-yl]methyl]-1,3-oxazinan-3-yl)[6-methyl-3-(pyrimidin-2-yl)pyridin-2-yl] methanone]",,
1.2,3.2,"O=C(c1cc(F)ccc1-n1nccn1)N1CCCOC1Cn1ccc(-c2ccc(F)cn2)n1 (single isomer, unassigned; (-)) [Example 29, (−)-(2-[[3-(5-fluoropyridin-2-yl)-1H-pyrazol-1-yl]methyl]-1,3-oxazinan-3-yl)[5-fluoro-2-(2H-1,2,3-triazol-2-yl)phenyl]methanone]",,
7.3,10.9,"Cc1ccc(-n2nccn2)c(C(=O)N2CCCOC2Cn2cc(-c3ccc(F)cc3)cn2)n1 (single isomer, unassigned; (-)) [Example 31, (−)-(2-[[4-(4-fluorophenyl)-1H-pyrazol-1-yl]methyl]-1,3-oxazinan-3-yl) [6-methyl-3-(2H-l,2,3-triazol-2-yl)pyridin-2-yl] methanone]",,
22.6,34.4,"Cc1ccc(-c2ncccn2)c(C(=O)N2CCCOC2Cn2cc(-c3ccc(F)cc3)cn2)n1 (single isomer, unassigned; (-)) [Example 32, (−)-(2-[[4-(4-fluorophenyl)-1H-pyrazol-1-yl]methyl]-l,3-oxazinan-3-yl)[6-methyl-3-(pyrimidin-2-yl)pyridin-2-yl] methanone]",,
1.7,1.1,"Cc1ccc(-n2nccn2)c(C(=O)N2CCCOC2Cc2noc(-c3ccc(F)cc3)n2)c1 (single isomer, unassigned; (-)) [Example 37, (−)-[2-[[5-(4-fluorophenyl)-1,2,4-oxadiazol-3-yl]methyl]-1,3-oxazinan-3-yl] [5-methyl-2-(2H-1,2,3-triazol-2-yl)phenyl] methanone]",,
7.3,2.1,"Cc1ccc(-n2nccn2)c(C(=O)N2CCCOC2Cc2noc(-c3ccc(F)cc3)n2)n1 (single isomer, unassigned; (-)) [Example 38, (−)-[2-[[5-(4-fluorophenyl)-1,2,4-oxadiazol-3-yl]methyl]-1,3-oxazinan-3-yl] [6-methyl-3-(2H-1,2,3-triazol-2-yl)pyridin-2-yl] methanone]",,
273,201,"Cc1ccc(-n2nccn2)c(C(=O)N2[C@H](Cn3cc(-c4ccc(F)cn4)cn3)OC[C@@H]2C)c1 [Example 10, (−)-[(2S,4S)-2-[[4-(5-fluoropyridin-2-yl)-1H-pyrazol-1-yl]methyl]-4-methyl-1,3-oxazolidin-3-yl] [5-methyl-2-(2H-1,2,3-triazol-2-yl)phenyl] methanone]",,
46.6,81.2,"Cc1ccc(-n2nccn2)c(C(=O)N2[C@H](Cn3cc(-c4ccc(F)cn4)cn3)OCC[C@@H]2C)c1 [Example 39, [(2S,4S)-2-{[4-(5-Fluoropyridin-2-yl)-1H-pyrazol-1-yl]methyl}-4-methyl-1,3-oxazinan-3-yl}[5-methyl-2-(2H-1,2,3-triazol-2-yl)phenyl]methanone]",,

# Second part, the compound before the results:
SMILES,"IC50 [1, 3] [nM]","IC50 [2, 4] [nM]",IC50 [1] [nM],"IC50 ([2]; IC50 Value OX1, CHO cells forcibly expressing hOX1R) [nM]"
"Cc1ccc(-c2ncccn2)c(C(=O)N2CCCOC2Cc2noc(-c3ccc(F)cn3)n2)c1 (racemic) [Example 33, (±)-(2-[[5-(5-fluoropyridin-2-yl)-1,2,4-oxadiazol-3-yl]methyl]-1,3-oxazinan-3-yl) [5-methyl-2-(pyrimidin-2-yl)phenyl]methanone]",4540,3590,,
"Cc1ccc(-c2ncccn2)c(C(=O)N2CCCOC2Cc2cnn(-c3ccc(F)cn3)c2)c1 (racemic) [Example 42, (±)-[2-[[1-(5-fluoropyridin-2-yl)-1H-pyrazol-4-yl]methyl]-1,3-oxazinan-3-yl] [5-methyl-2-(pyrimidin-2-yl)phenyl]methanone]",20.4,17.2,,
"Cc1ccc(-n2nccn2)c(C(=O)N2CCCOC2Cn2ccc(-c3ccc(F)cn3)n2)c1 (single isomer, unassigned; (-)) [Example 3, (−)-(2-[[3-(5-fluoropyridin-2-yl)-1H-pyrazol-1-yl]-methyl]-1,3-oxazinan-3-yl)[5-methyl-2-(2H-1,2,3-triazol-2-yl)phenyl] methanone]",,,1.2,0.7
"Cc1ccc(-c2ncccn2)c(C(=O)N2CCCOC2Cn2ccc(-c3ccc(F)cn3)n2)c1 (single isomer, unassigned; (-)) [Example 30]",3,2.6,,
"O=C(c1cc(F)ccc1-c1ncccn1)N1CCCOC1Cn1ccc(-c2ccc(F)cn2)n1 (single isomer, unassigned; (-)) [Example 34, (−)-[2-[[3-(5-fluoropyridin-2-yl)-1H-pyrazol-1-yl]methyl]-l,3-oxazinan-3-yl] [5-fluoro-2-(pyrimidin-2-yl)phenyl]methanone]",6.2,2.2,,
"Cc1ccc(-n2nccn2)c(C(=O)N2CCCOC2Cc2noc(-c3ccc(F)cn3)n2)c1 (single isomer, unassigned; (-)) [Example 36, (−)-[2-[[5-(5-fluoropyridin-2-yl)-1,2,4-oxadiazol-3-yl]methyl]-1,3-oxazinan-3-yl] [5-methyl-2-(2H-1,2,3-triazol-2-yl)phenyl] methanone]",6.9,3.8,,
"Cc1ccc(-c2ncccn2)c(C(=O)N2CCCOC2Cn2ccc(-c3ccc(F)cc3)n2)c1 (single isomer, unassigned; (-)) [Example 41, (−)-[2-{[3-(4-Fluorophenyl)-1H-pyrazol-1-yl]methyl}-1,3-oxazinan-3-yl][5-methyl-2-(pyrimidin-2-yl)phenyl]methanone]",1,1,,
"Cc1ccc(-n2nccn2)c(C(=O)N2CCOC2Cc2ccn(-c3ccc(F)cn3)n2)c1 (single isomer, unassigned; (-)) [Example 45, (−)-[2-{[1-(5-Fluoropyridin-2-yl)-1H-pyrazol-3-yl]methyl}-1,3-oxazolidin-3-yl][5-methyl-2-(2H-1,2,3-triazol-2-yl)phenyl]methanone]",12.1,2.7,,
"Cc1ccc(-n2nccn2)c(C(=O)N2CCOC2Cc2cnn(-c3ccc(F)cn3)c2)c1 (single isomer, unassigned; (-)) [Example 46, (−)-[2-{[1-(5-Fluoropyridin-2-yl)-1H-pyrazol-4-yl]methyl}-1,3-oxazolidin-3-yl][5-methyl-2-(2H-1,2,3-triazol-2-yl)phenyl]methanone]",38.7,31.9,,
"Cc1ccc(-n2nccn2)c(C(=O)N2[C@H](C)CO[C@H]2Cn2cc(-c3ccc(F)cn3)cn2)c1 [Example 8, [(2S,4R)-2-[[4-(5-fluoropyridin-2-yl)-1H-pyrazol-1-yl]-methyl]-4-methyl-1,3-oxazolidin-3-yl] [5-methyl-2-(2H-1,2,3-triazol-2-yl)phenyl] methanone]",460,60.9,,
